Data published in patent US20240398806A1, “Compositions For and Methods of Treating and/or Preventing Pain” (Duke University, priority 2021, published 2024).

Legend:
[1] = Central blood pressure (systolic ventricular pressure) in anesthetized mice; format: in vivo, C57BL/6J mice; conditions: 12 mg/kg, i.p.
Procedure: SBI-553 treatment was not associated with hypothermia or hypotension. In addition to modulating motivated behavior. […] SBI-553 (at 2-30 mg/kg, i.p.) had no effect on core body temperature (FIG. 6B). […] This was an effect not secondary to hypothermia as body temperature was maintained by thermal support. These findings indicate that a Gq protein-dependent mechanism mediates NTSR1-associated side effects and is not engaged by SBI-553. Consistent with an antagonist like action at NTSR1.

[2] = Rotarod test of motor function; conditions: i.t. injection
[3] = Paclitaxel (PTX)-induced mechanical allodynia, von Frey paw withdrawal threshold; conditions: i.t., 1 mg≈2 nmol as printed
NTSR1 [4] = target: T1, NTSR1 (Homo sapiens, UniProt P30989); experiment: Gq protein activation / intracellular Ca++ (FIG. 5A); format: cell-based; design: expressed in transfected cells; host or cells: HEK293T cell membranes; conditions: unlike NT
Excerpt: (§1) Preliminary studies provided significant data for this example. SBI-553 was derived from a medicinal chemistry campaign to improve the ML314 probe series and was selected for potency, pharmacokinetic profile, and selectivity for NTSR1 over the NTSR2 (Pinkerton A B, et al. (2019) J Med Chem. 62(17):8357-8363, which is incorporated by reference for its teachings of the making of SBI-553). […] Binding specificity to NTSR1 was further confirmed by comparing membranes containing an off-target receptor (i.e., b2-adrenergic receptor) (Slosky L M, et al. (2020) Cell. 181(6):1364-1379e14). […] These findings indicate that SBI-553 is a β-arrestin-biased ligand that stimulates β-arrestin-mediated processes at NTSR1 […] without activating Gq protein signaling (FIG. 5).

NTSR1 [5] = target: T1, NTSR1; experiment: [3H]NTS saturation binding to NTSR1-containing HEK293T cell membranes in absence and presence of SBI-553; design: expressed in transfected cells; host or cells: HEK293T cell membranes
Excerpt: FIG. 4A-FIG. 4D show SBI-553 activates NTSR1 to stimulate β-arrestin-associated cellular responses.
as §1

NTSR1 [6] = target: T1, NTSR1; experiment: Cellular assay of β-arrestin-2 translocation in cells expressing NTSR1; format: cell-based; design: expressed in transfected cells; host or cells: HEK293T cell membranes
Procedure: First, using cellular assays, whether IND candidates such as SBI-810 are similar or better than SBI-553 as β-arrestin biased agonist at NTSR1. is assessed. The chemical entities used in this work were synthesized and validated. However, routine validation of the profile of these compounds is performed routinely using both cellular and in vivo assays. For example, HEK293 cells that express either the NTSR1 or NTSR2 are used to assess the functional profile of the various chemical probes. In addition, a series of genetically engineered mouse lines are used to provide an in vivo validation of novel chemical entities for their abilities to module behaviors in these animals.
Fourth, cellular assays are used to establish that IND ready analogs like SBI-810 are still selective for the NTSR1 rather than NTSR2. The specificity of the lead compounds toward NTSR1. NTSR2. and β-arrestin-2 are tested in respective cellular assays. More specifically, cells expressing either NTSR1 or NTSR2 are used to assess the function of various compound. […] This translocation is not observed in cells expressing NTSR2.
Fourth, genetically engineered mice are used to assess the effects and mechanisms of novel ligands. The specificity of the lead compounds toward NTSR1, NTSR2, and β-arrestin-2 dependent signaling is examined. […]

NTSR1 [7] = target: T1, NTSR1; experiment: [3H]SBI-553 saturation binding to NTSR1-containing HEK293T cell membranes; design: expressed in transfected cells; host or cells: HEK293T cell membranes; conditions: below 400 nM
[8] = global β-arrestin2 KO mice; cited from earlier work
Pharmacokinetics in rat = format: in vivo

T1 sequence (P30989 whole entry): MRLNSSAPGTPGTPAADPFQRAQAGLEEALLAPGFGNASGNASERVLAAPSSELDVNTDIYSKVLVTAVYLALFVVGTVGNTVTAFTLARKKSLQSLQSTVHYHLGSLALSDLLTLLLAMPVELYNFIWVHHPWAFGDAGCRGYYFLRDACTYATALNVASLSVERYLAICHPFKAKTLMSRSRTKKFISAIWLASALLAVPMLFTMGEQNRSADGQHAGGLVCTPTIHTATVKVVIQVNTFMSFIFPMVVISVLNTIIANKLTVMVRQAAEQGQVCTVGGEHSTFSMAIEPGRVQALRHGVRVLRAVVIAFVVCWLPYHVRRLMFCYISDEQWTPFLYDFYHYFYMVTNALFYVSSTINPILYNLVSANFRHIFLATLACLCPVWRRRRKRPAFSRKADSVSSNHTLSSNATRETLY

Activation of G protein Gq / intracellular Ca++ (NTSR1 [4]): cannot activate the G protein Gq
Effect on total [3H]NTS binding (NTSR1 [5]): increased
Increase of NTS affinity for NTSR1 (Kd) (NTSR1 [5]; dose-dependent): up to 3.9 fold
Increase of number of available [3H]NTS binding sites (Bmax) (NTSR1 [5]; dose-dependent): up to 3.3 fold
Specific [3H]SBI-553 binding as share of total binding (NTSR1 [7]): ~50%
CIp (Pharmacokinetics in rat; 5 mpk iv (printed tv)): 81 mL/min/kg
Vd (Pharmacokinetics in rat; 5 mpk iv (printed tv)): 7.02 L/kg
Cmax (Pharmacokinetics in rat; 30 mpk po (pa [sic])): 3482 ng/mL
T2/2 (Pharmacokinetics in rat; 30 mpk po (pa [sic])): 2.23 h
Kp at 1 h (Pharmacokinetics in rat; brain, 30 mg/kg, 30 mpk po (pa [sic]), 1 h, read-out: brain:plasma @ 1 h): 0.98
bioavailability (Pharmacokinetics in rat; plasma, 30 mg/kg, 5 mpk iv and 30 mpk po): 48%
AUC (Pharmacokinetics in rat; route not marked): 2693 ng·h/mL
Structure (SMILES): COc1ccccc1C1CCN(c2nc(C3(F)CC3)nc3ccc(N(C)CCO)cc23)CC1 [SBI-553]
Hemodynamic parameters versus vehicle [1]: no differences
Rotarod testing versus vehicle [2]: no significant difference
Duration of reduction of mechanical allodynia [3]: > 24 h
PTX-induced mechanical allodynia (increased PWT) versus vehicle ([3]; four weeks after PTX): significant reduction of mechanical allodynia
Translocation of β-arrestin-2 to intracellular compartments (NTSR1 [6]): demonstrate translocation of β-arrestin-2
Significant reduction in locomotion [8]: absent
